Where only a bound is given, the exact number is not on record here.

One test deals with T1, human PAH with the R408W mutation (Homo sapiens, UniProt P00439, R408W).
T1 construct: expressed in transfected cells
T1 sequence (P00439 1-452 R408W): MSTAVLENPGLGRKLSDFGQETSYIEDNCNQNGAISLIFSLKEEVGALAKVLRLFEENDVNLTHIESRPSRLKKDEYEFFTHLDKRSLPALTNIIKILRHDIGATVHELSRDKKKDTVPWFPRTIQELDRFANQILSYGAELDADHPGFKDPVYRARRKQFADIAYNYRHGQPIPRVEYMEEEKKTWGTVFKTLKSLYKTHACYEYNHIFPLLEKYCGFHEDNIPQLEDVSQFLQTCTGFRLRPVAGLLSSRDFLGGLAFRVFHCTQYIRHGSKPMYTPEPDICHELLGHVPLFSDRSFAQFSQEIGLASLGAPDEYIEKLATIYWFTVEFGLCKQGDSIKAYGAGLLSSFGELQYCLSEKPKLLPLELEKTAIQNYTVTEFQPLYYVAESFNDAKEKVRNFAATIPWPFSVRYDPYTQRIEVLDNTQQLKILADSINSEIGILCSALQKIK
The test can be described thus: Cell Based Phenylalanine Flux Assay.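 Note: after compound treatment, cells received sepiapterin plus isotope-labelled Phenylalanine for 4 hours, then labelled Tyrosine in the medium was quantified, 10-point 2-fold dilution series run in duplicate.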 As to conditions: A375 cells expressing human PAH R408W; 24 hrs compound incubation; 13C-Tyrosine by LC-MS; average where tested multiple times; read-out: AC50.
With `Cc1cccn2nc([C@@H]3c4nc[nH]c4CCN3c3nnc(C(C)(C)C)o3)cc12` [Example 1799, (S)-2-(tert-butyl)-5-(4-(4-methylpyrazolo[1,5-a]pyridin-2-yl)-6,7-dihydro-1H-imidazo[4,5-c]pyridin-5(4H)-yl)-1,3,4-oxadiazole], the concentration at half-maximal activity (AC50) lay within 0.5 to 1 µM.

Take `FC(F)(F)c1cnc(N2CCc3[nH]cnc3[C@H]2c2cc3cccc(Cl)n3n2)nc1` [Example 1800, (S)-4-(7-chloropyrazolo[1,5-a]pyridin-2-yl)-5-(5-(trifluoromethyl)pyrimidin-2-yl)-4,5,6,7-tetrahydro-1H-imidazo[4,5-c]pyridine]: the concentration at half-maximal activity (AC50) is below 0.5 µM.

For the compound `Cc1cccc2cc([C@H]3c4nc[nH]c4CCN3c3ncc(C(F)(F)F)cn3)nn12` [Example 1803, (R)-4-(7-methylpyrazolo[1,5-a]pyridin-2-yl)-5-(5-(trifluoromethyl)pyrimidin-2-yl)-4,5,6,7-tetrahydro-1H-imidazo[4,5-c]pyridine], the AC50 was above 5 µM.

As for `Cc1cccn2nc([C@H]3c4nc[nH]c4CCN3c3cnccn3)cc12` [Example 1804, (R)-4-(4-methylpyrazolo[1,5-a]pyridin-2-yl)-5-(pyrazin-2-yl)-4,5,6,7-tetrahydro-1H-imidazo[4,5-c]pyridine], the AC50 lay within 1 to 5 µM.

Turning to `Cc1cccn2nc([C@@H]3c4nc[nH]c4CCN3c3cnccn3)cc12` [Example 1805, (S)-4-(4-methylpyrazolo[1,5-a]pyridin-2-yl)-5-(pyrazin-2-yl)-4,5,6,7-tetrahydro-1H-imidazo[4,5-c]pyridine], the half-maximal activity concentration (AC50) is below 0.5 µM.

On to `FC(F)(F)c1nnc(N2CCc3[nH]cnc3[C@H]2c2cc3ccccn3n2)o1` [Example 1807, (S)-2-(4-(pyrazolo[1,5-a]pyridin-2-yl)-6,7-dihydro-1H-imidazo[4,5-c]pyridin-5(4H)-yl)-5-(trifluoromethyl)-1,3,4-oxadiazole], for which the AC50 was 0.5 to 1 µM.

As to `Cc1cccn2nc([C@@H]3c4nc[nH]c4CCN3c3nnc(C(F)(F)F)o3)cc12` [Example 1809, (S)-2-(4-(4-methylpyrazolo[1,5-a]pyridin-2-yl)-6,7-dihydro-1H-imidazo[4,5-c]pyridin-5(4H)-yl)-5-(trifluoromethyl)-1,3,4-oxadiazole], the half-maximal activity concentration (AC50) was below 0.5 µM.

For the compound `FC(F)(F)c1cnc(N2CCc3[nH]cnc3[C@H]2c2cc3cccc(C(F)(F)F)n3n2)nc1` [Example 1810, (S)-4-(7-(trifluoromethyl)pyrazolo[1,5-a]pyridin-2-yl)-5-(5-(trifluoromethyl)pyrimidin-2-yl)-4,5,6,7-tetrahydro-1H-imidazo[4,5-c]pyridine], the AC50 lay in the range of 0.5 to 1 µM.

Regarding `FC(F)c1cccc2cc([C@@H]3c4nc[nH]c4CCN3c3ncc(C(F)(F)F)cn3)nn12` [Example 1812, (S)-4-(7-(difluoromethyl)pyrazolo[1,5-a]pyridin-2-yl)-5-(5-(trifluoromethyl)pyrimidin-2-yl)-4,5,6,7-tetrahydro-1H-imidazo[4,5-c]pyridine], the AC50 lay within 0.5 to 1 µM.

Regarding `c1ccc(N2CCc3[nH]cnc3[C@H]2c2cc3ccccn3n2)nc1` [Example 1814, (S)-4-(pyrazolo[1,5-a]pyridin-2-yl)-5-(pyridin-2-yl)-4,5,6,7-tetrahydro-1H-imidazo[4,5-c]pyridine], the half-maximal activity concentration (AC50) is below 0.5 µM.

For the compound `c1ccc(N2CCc3[nH]cnc3[C@@H]2c2cc3ccccn3n2)nc1` [Example 1815, (R)-4-(pyrazolo[1,5-a]pyridin-2-yl)-5-(pyridin-2-yl)-4,5,6,7-tetrahydro-1H-imidazo[4,5-c]pyridine], the half-maximal activity concentration (AC50) was above 5 µM.

For `FC(F)c1cccn2nc([C@H]3c4nc[nH]c4CCN3c3cnccn3)cc12` [Example 1816, (R)-4-(4-(difluoromethyl)pyrazolo[1,5-a]pyridin-2-yl)-5-(pyrazin-2-yl)-4,5,6,7-tetrahydro-1H-imidazo[4,5-c]pyridine], the AC50 is above 5 µM.

On to `FC(F)c1cccn2nc([C@@H]3c4nc[nH]c4CCN3c3cnccn3)cc12` [Example 1817, (S)-4-(4-(difluoromethyl)pyrazolo[1,5-a]pyridin-2-yl)-5-(pyrazin-2-yl)-4,5,6,7-tetrahydro-1H-imidazo[4,5-c]pyridine], for which the half-maximal activity concentration (AC50) is below 0.5 µM.

`FC(F)(F)c1cccn2nc([C@H]3c4nc[nH]c4CCN3c3cnccn3)cc12` [Example 1818, (R)-5-(pyrazin-2-yl)-4-(4-(trifluoromethyl)pyrazolo[1,5-a]pyridin-2-yl)-4,5,6,7-tetrahydro-1H-imidazo[4,5-c]pyridine]: the AC50 was above 5 µM.

On to `FC(F)(F)c1cccn2nc([C@@H]3c4nc[nH]c4CCN3c3cnccn3)cc12` [Example 1819, (S)-5-(pyrazin-2-yl)-4-(4-(trifluoromethyl)pyrazolo[1,5-a]pyridin-2-yl)-4,5,6,7-tetrahydro-1H-imidazo[4,5-c]pyridine], for which the concentration at half-maximal activity (AC50) is below 0.5 µM.

Consider `FC(F)(F)c1nnc(N2CCc3[nH]cnc3[C@@H]2c2cc3c(C(F)(F)F)cccn3n2)o1` [Example 1820, (R)-2-(trifluoromethyl)-5-(4-(4-(trifluoromethyl)pyrazolo[1,5-a]pyridin-2-yl)-6,7-dihydro-1H-imidazo[4,5-c]pyridin-5(4H)-yl)-1,3,4-oxadiazole], for which the AC50 was above 5 µM.

As to `FC(F)(F)c1nnc(N2CCc3[nH]cnc3[C@H]2c2cc3c(C(F)(F)F)cccn3n2)o1` [Example 1821, (S)-2-(trifluoromethyl)-5-(4-(4-(trifluoromethyl)pyrazolo[1,5-a]pyridin-2-yl)-6,7-dihydro-1H-imidazo[4,5-c]pyridin-5(4H)-yl)-1,3,4-oxadiazole], the AC50 is below 0.5 µM.

In the case of `CC(C)(C)c1nnc(N2CCc3[nH]cnc3[C@H]2c2cc3c(C(F)F)cccn3n2)o1` [Example 1825, (S)-2-(tert-butyl)-5-(4-(4-(difluoromethyl)pyrazolo[1,5-a]pyridin-2-yl)-6,7-dihydro-1H-imidazo[4,5-c]pyridin-5(4H)-yl)-1,3,4-oxadiazole], the AC50 lay in the range of 0.5 to 1 µM.

As to `Cc1cccn2nc([C@@H]3c4nc[nH]c4CCN3c3ncc(N)cn3)cc12` [Example 1827, (S)-2-(4-(4-methylpyrazolo[1,5-a]pyridin-2-yl)-6,7-dihydro-1H-imidazo[4,5-c]pyridin-5(4H)-yl)pyrimidin-5-amine], the AC50 lay in the range of 0.5 to 1 µM.

With `FC(F)c1cccn2nc([C@H]3c4nc[nH]c4CCN3c3cncc(Cl)n3)cc12` [Example 1828, (R)-5-(6-chloropyrazin-2-yl)-4-(4-(difluoromethyl)pyrazolo[1,5-a]pyridin-2-yl)-4,5,6,7-tetrahydro-1H-imidazo[4,5-c]pyridine], the concentration at half-maximal activity (AC50) was in the range of 1 to 5 µM.

Take `FC(F)c1cccn2nc([C@@H]3c4nc[nH]c4CCN3c3cncc(Cl)n3)cc12` [Example 1829, (S)-5-(6-chloropyrazin-2-yl)-4-(4-(difluoromethyl)pyrazolo[1,5-a]pyridin-2-yl)-4,5,6,7-tetrahydro-1H-imidazo[4,5-c]pyridine]: the half-maximal activity concentration (AC50) was below 0.5 µM.

For `Clc1cccn2nc([C@H]3c4nc[nH]c4CCN3c3nnc(C4CCC4)o3)cc12` [Example 1830, (R)-2-(4-(4-chloropyrazolo[1,5-a]pyridin-2-yl)-6,7-dihydro-1H-imidazo[4,5-c]pyridin-5(4H)-yl)-5-cyclobutyl-1,3,4-oxadiazole], the AC50 was above 5 µM.

Staying with this test, now noted: A375 cells expressing human R408W PAH; 24 hrs compound incubation; 13C-Tyrosine by LC-MS; average where tested multiple times; read-out: AC50.
In the case of `O=C(c1cnn2cc(C3CC3)ccc12)N1CCc2[nH]cnc2[C@@H]1c1cc2cccc(F)n2n1` [Example 1791, (R)-(6-cyclopropylpyrazolo[1,5-a]pyridin-3-yl)(4-(7-fluoropyrazolo[1,5-a]pyridin-2-yl)-6,7-dihydro-1H-imidazo[4,5-c]pyridin-5(4H)-yl)methanone], the AC50 was above 5 µM.

For the compound `CN(C)c1ccc2c(C(=O)N3CCc4[nH]cnc4[C@H]3c3cc4c(Cl)cccn4n3)cnn2c1` [Example 1792, (S)-(4-(4-chloropyrazolo[1,5-a]pyridin-2-yl)-6,7-dihydro-1H-imidazo[4,5-c]pyridin-5(4H)-yl)(6-(dimethylamino)pyrazolo[1,5-a]pyridin-3-yl)methanone], the AC50 is below 0.5 µM.

Take `Cc1cccc2cc([C@@H]3c4nc[nH]c4CCN3C(=O)c3cnn4cc(N(C)C)ccc34)nn12` [Example 1794, (S)-(6-(dimethylamino)pyrazolo[1,5-a]pyridin-3-yl)(4-(7-methylpyrazolo[1,5-a]pyridin-2-yl)-6,7-dihydro-1H-imidazo[4,5-c]pyridin-5(4H)-yl)methanone]: the concentration at half-maximal activity (AC50) was 0.5 to 1 µM.

For `Cc1cccc2cc([C@H]3c4nc[nH]c4CCN3C(=O)c3cnn4cc(N(C)C)ccc34)nn12` [Example 1795, (R)-(6-(dimethylamino)pyrazolo[1,5-a]pyridin-3-yl)(4-(7-methylpyrazolo[1,5-a]pyridin-2-yl)-6,7-dihydro-1H-imidazo[4,5-c]pyridin-5(4H)-yl)methanone], the AC50 is above 5 µM.

Consider `COCCc1ccc2c(C(=O)N3CCc4[nH]cnc4[C@H]3c3cc4c(F)cccn4n3)cnn2c1` [Example 1796, (S)-(4-(4-fluoropyrazolo[1,5-a]pyridin-2-yl)-6,7-dihydro-1H-imidazo[4,5-c]pyridin-5(4H)-yl)(6-(2-methoxyethyl)pyrazolo[1,5-a]pyridin-3-yl)methanone], for which the AC50 lay in the range of 0.5 to 1 µM.

For the compound `Cc1cccn2nc([C@H]3c4nc[nH]c4CCN3c3nnc(C(C)(C)C)o3)cc12` [Example 1798, (R)-2-(tert-butyl)-5-(4-(4-methylpyrazolo[1,5-a]pyridin-2-yl)-6,7-dihydro-1H-imidazo[4,5-c]pyridin-5(4H)-yl)-1,3,4-oxadiazole], the AC50 is above 5 µM.
